Experimental data reported in PMC11928863 (Computational and Structural Biotechnology Journal, 2025).

Target: T1, CD2068 (Clostridioides difficile, UniProt Q188D7)
T1 sequence (Q188D7 1-541): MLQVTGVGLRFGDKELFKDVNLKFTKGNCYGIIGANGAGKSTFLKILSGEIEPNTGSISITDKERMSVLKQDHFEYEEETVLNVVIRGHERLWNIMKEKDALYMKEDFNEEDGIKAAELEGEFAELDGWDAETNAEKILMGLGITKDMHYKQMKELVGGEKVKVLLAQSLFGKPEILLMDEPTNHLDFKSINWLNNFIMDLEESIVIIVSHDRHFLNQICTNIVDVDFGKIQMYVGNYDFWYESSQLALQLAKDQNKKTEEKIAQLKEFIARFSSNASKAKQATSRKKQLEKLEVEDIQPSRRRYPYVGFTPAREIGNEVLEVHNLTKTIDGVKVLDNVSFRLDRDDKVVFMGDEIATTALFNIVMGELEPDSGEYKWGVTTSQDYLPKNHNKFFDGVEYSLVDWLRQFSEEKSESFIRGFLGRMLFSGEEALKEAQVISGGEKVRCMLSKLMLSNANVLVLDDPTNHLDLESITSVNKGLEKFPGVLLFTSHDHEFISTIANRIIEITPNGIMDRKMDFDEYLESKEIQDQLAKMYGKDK
Experiment: malachite green ATPase assay, purified CD2068 with […] ATP
Assay type: biochemical

Nc1ncnc2c1ncn2[C@@H]1O[C@H](COP(=O)(O)OP(=O)(O)OP(=O)(O)O)[C@@H](O)[C@H]1O [ATP]
malachite green ATPase assay, purified CD2068 with 1 mM ATP: 52.52 nmol/min/mg
